# Experimental data taken from patent publication US6506339B1, “Method of sterilization” (Biomedical Design, Inc., priority 1997, dated 2003).
# How the values were obtained:
# Format in all cases: cell-based
# Bacillus Subtilis spores = assay: Sterilization test, Bacillus subtilis spores in cups with or without fixed heart valves, 40° C. (Example 2); parameters: key: (+) Indicates growth; (−) indicates no growth or complete kill; conditions: 20 mM EDC+1 mM Sulfo-NHS, 20% isopropyl alcohol
# Method: (§1) Porcine aortic roots are fixed by cross-linking according to the method described in U.S. Pat. No. 5,447,536. After fixation, the valves are stored in 10 mM HEPES, 0.85% NaCl, 20% isopropyl alcohol, pH 7.4, at 4° C. The sterility tests described in the following examples are in most cases conducted in the presence of bioprosthetic heart valve tissue; when such tissue is not present, the solutions are simply filtered through a 0.45 micron filter attached to a funnel (filter funnel). The filters are then rinsed with peptone water to eliminate residual chemicals on the membrane that may prevent growth of the organisms tested. Such membrane filters are then incubated on TSA plates at about 32° to 33° C., e.g. 32.5° C. When an aortic valve is inoculated with microorganisms for test purposes and then submitted to sterilization, the solution is filtered as described above. The aortic valve tissue is then washed for 20 minutes in a reciprocating shaker in the presence of peptone water containing Tween 80 in order to extract all indigenous spores or microorganisms from the tissue. This solution is filtered and then incubated as described above. All microbiological testing is performed in a biological laminar flow hood to prevent contamination. The shrinkage temperature and the proteolytic (collagenase and protease) degradation tests are conducted as previously described in the '536 patent. Resistance to calcification is assessed by subdermal implantation of sterilized leaflets and aortic wall coupons in young rats, as also described in the '536 U.S. patent.
# A sterilization process similar to Example 1 is carried out using Bacillus Subtilis spores (˜10^6) inoculated in sterile cups some of which contain cross-linked heart valves that had been fixed by a process according to U.S. Pat. No. 5,447,536. A 10 mM HEPES, 0.85% NaCl, pH 6.5 solution containing 20 mM EDC and 1 mM Sulfo-NHS in the presence of 20% isopropyl alcohol was added for various periods of time (treatment duration). The cups and the heart valves were maintained at 40° C. for the term of the treatment. The solutions were then filtered and the filters incubated for up to 7 days (incubation duration) at about 32-33° C. using Trypticase Soy Agar (TSA) plates. All inoculations were done in duplicate.
# [1] = tested on: Bacillus subtilis (niger) spores; assay: Sterilization without isopropyl alcohol at 55° C. (Example 4D)
# Method: An experiment similar to that of Example 4A was carried out using a higher temperature of 55°. Bacillus subtilis (niger) spores at levels of 1.32×10^6 (Log10=6.12) were inoculated for approximately 10 minutes in sterile cups. Solutions (50 ml) of 5 and 50 mM EDC in 10 mM TRIS, 0.85% NaCl, pH 6.5 were prewarmed to 55° C. and then rapidly added to the cups. The cups were incubated at 55° C. for 1 and 10 hours; the solutions were then diluted and filtered in order to collect microorganisms. The filters were rinsed with a 0.1% peptone water solution and incubated on TSA plates for up to 14 days. The plates are examined daily for growth. […] This can be extrapolated to achieving complete kill in 2-3 hours. […] Although this cannot be extrapolated to complete kill over a greater length of time because of the low level of EDC remaining after 10 hours, it is expected that sterilization treatment using a concentration at least about 15 mM EDC at 55° C. for 10 hours would result in complete kill.
# [2] = tested on: Mycobacterium Chelonae ATCC 35752; assay: Sterilization test, Mycobacterium chelonae in sterile cups at room temperature (Example 1); parameters: key: (+) Indicates growth; (−) indicates no growth or complete kill; conditions: 10 mM EDC+1 mM Sulfo-NHS, 20% isopropyl alcohol
# Method: as §1
# Mycobacterium Chelonae ATCC 35752 (˜10^5) was inoculated in sterile cups. A 10 mM HEPES, 0.85% NaCl, pH 6.5 solution containing 10 mM EDC and 1 mM Sulfo-NHS in the presence or absence of 20% isopropyl alcohol was maintained in contact with the bacteria in the cups for various periods of time (treatment duration). The cups were maintained at room temperature, and the solutions were then filtered. The filters were then incubated at about 32-33° C. for up to 6 weeks (incubation duration) using either Trypticase Soy Agar (TSA) plates or Trypticase Soy Broth (TSB). All inoculations were done in duplicate.
compound,measurement,setting,value
"CCN=C=NCCCN(C)C.Cl [EDC, 1-ethyl-3(3-dimethylaminopropyl)carbodiimide hydrochloride]",growth on TSA plates,"Bacillus Subtilis spores; with valves, treatment 48 hours, incubation 1 Day",−
same,growth on TSA plates,"Bacillus Subtilis spores; with valves, treatment 48 hours, incubation 7 Days",−
same,growth on TSA plates,"Bacillus Subtilis spores; with valves, treatment 72 hours, incubation 1 Day",−
same,growth on TSA plates,"Bacillus Subtilis spores; with valves, treatment 72 hours, incubation 7 Days",−
same,growth on TSA plates,"Bacillus Subtilis spores; without valves, treatment 24 hours, incubation 1 Day",−
same,growth on TSA plates,"Bacillus Subtilis spores; without valves, treatment 24 hours, incubation 7 Days",−
same,growth on TSA plates,"Bacillus Subtilis spores; without valves, treatment 48 hours, incubation 1 Day",−
same,growth on TSA plates,"Bacillus Subtilis spores; without valves, treatment 48 hours, incubation 7 Days",−
same,growth on TSA plates,"Bacillus Subtilis spores; without valves, treatment 72 hours, incubation 1 Day",−
same,growth on TSA plates,"Bacillus Subtilis spores; without valves, treatment 72 hours, incubation 7 Days",−
same,log reduction,"[1]; 5 mM EDC, 1 hour, 1.32×10^6 spores, no isopropyl alcohol",0.512
same,log reduction,"[1]; 5 mM EDC, 10 hours, 1.32×10^6 spores, no isopropyl alcohol",4.46
same,inactivation of spores,"[1]; 50 mM EDC, 10 hours, 1.32×10^6 spores, no isopropyl alcohol",effectively inactivated these spores
same,time to complete kill (extrapolated),"[1]; 50 mM EDC, extrapolated from the one-hour log reduction",2 to 3 h
same,log reduction,"[1]; 50 mM EDC, one hour, 1.32×10^6 spores, no isopropyl alcohol",3.04
same,growth,"[2]; treatment 0 hour, incubation 1 Day, TSA","−,−"
same,growth,"[2]; treatment 0 hour, incubation 1 Day, TSB","−,−"
same,growth,"[2]; treatment 0 hour, incubation 1 Week, TSA","−,−"
same,growth,"[2]; treatment 0 hour, incubation 1 Week, TSB","−,−"
same,growth,"[2]; treatment 12 hours, incubation 1 Day, TSA","−,−"
same,growth,"[2]; treatment 12 hours, incubation 1 Day, TSB","−,−"
same,growth,"[2]; treatment 12 hours, incubation 1 Week, TSA","−,−"
same,growth,"[2]; treatment 12 hours, incubation 1 Week, TSB","−,−"
same,growth,"[2]; treatment 12 hours, incubation 3 Week, TSA","−,−"
same,growth,"[2]; treatment 12 hours, incubation 3 Week, TSB","−,−"
same,growth,"[2]; treatment 12 hours, incubation 4 Week, TSA","−,−"
same,growth,"[2]; treatment 12 hours, incubation 4 Week, TSB","−,−"
same,growth,"[2]; treatment 12 hours, incubation 6 Week, TSA","−,−"
same,growth,"[2]; treatment 12 hours, incubation 6 Week, TSB","−,−"
same,growth,"[2]; treatment 24 hours, incubation 1 Day, TSA","−,−"
same,growth,"[2]; treatment 24 hours, incubation 1 Day, TSB","−,−"
same,growth,"[2]; treatment 24 hours, incubation 1 Week, TSA","−,−"
same,growth,"[2]; treatment 24 hours, incubation 1 Week, TSB","−,−"
same,growth,"[2]; treatment 24 hours, incubation 3 Week, TSA","−,−"
same,growth,"[2]; treatment 24 hours, incubation 3 Week, TSB","−,−"
same,growth,"[2]; treatment 24 hours, incubation 4 Week, TSA","−,−"
same,growth,"[2]; treatment 24 hours, incubation 4 Week, TSB","−,−"
same,growth,"[2]; treatment 24 hours, incubation 6 Week, TSA","−,−"
same,growth,"[2]; treatment 24 hours, incubation 6 Week, TSB","−,−"
same,growth,"[2]; treatment 48 hours, incubation 1 Day, TSA","−,−"
same,growth,"[2]; treatment 48 hours, incubation 1 Day, TSB","−,−"
same,growth,"[2]; treatment 48 hours, incubation 1 Week, TSA","−,−"
same,growth,"[2]; treatment 48 hours, incubation 1 Week, TSB","−,−"
same,growth,"[2]; treatment 48 hours, incubation 3 Week, TSA","−,−"
same,growth,"[2]; treatment 48 hours, incubation 3 Week, TSB","−,−"
same,growth,"[2]; treatment 48 hours, incubation 4 Week, TSA","−,−"
same,growth,"[2]; treatment 48 hours, incubation 4 Week, TSB","−,−"
same,growth,"[2]; treatment 48 hours, incubation 6 Week, TSA","−,−"
same,growth,"[2]; treatment 48 hours, incubation 6 Week, TSB","−,−"
same,growth,"[2]; treatment 72 hours, incubation 1 Day, TSA","−,−"
same,growth,"[2]; treatment 72 hours, incubation 1 Day, TSB","−,−"
same,growth,"[2]; treatment 72 hours, incubation 1 Week, TSA","−,−"
same,growth,"[2]; treatment 72 hours, incubation 1 Week, TSB","−,−"
same,growth,"[2]; treatment 72 hours, incubation 3 Week, TSA","−,−"
same,growth,"[2]; treatment 72 hours, incubation 3 Week, TSB","−,−"
same,growth,"[2]; treatment 72 hours, incubation 4 Week, TSA","−,−"
same,growth,"[2]; treatment 72 hours, incubation 4 Week, TSB","−,−"
same,growth,"[2]; treatment 72 hours, incubation 6 Week, TSA","−,−"
same,growth,"[2]; treatment 72 hours, incubation 6 Week, TSB","−,−"
